This passage reports Kd results from article PMC12785651, “The Role of Active Site Hydrophobic Interactions in Facilitating Catalysis in Human Terminal Deoxynucleotidyl Transferase” (International Journal of Molecular Sciences, 2025).

The target in data set [1] is T1, TdT (human terminal deoxynucleotidyl transferase, hTdT) (Homo sapiens, UniProt P04053, L397A).
T1 construct: gene DNTT; expression per earlier publication
As to the kind of experiment: microscale thermophoresis (Monolith NT.[…]). The format is binding. The settings on record: 50 mM Tris-HCl pH 8.0, 5 mM MnCl2, 37 °C; no primer listed; Hill coefficient fixed at 2; labelled compound (fluorescein); read-out: Kd, μM / Flu-dUTP. (In general: MST reads how a fluorescent partner responds to local heating, with and without ligand.)

Data set [2] has as its target T2, TdT (human terminal deoxynucleotidyl transferase, hTdT) (Homo sapiens, UniProt P04053, F404A).
T2 construct: gene DNTT; expression per earlier publication
As to the kind of experiment: microscale thermophoresis (Monolith NT.[…]). It counts as binding. The settings on record: 50 mM Tris-HCl pH 8.0, 5 mM MnCl2, 37 °C; no primer listed; Hill coefficient fixed at 2; labelled compound (fluorescein); read-out: Kd, μM / Flu-dUTP.

Data set [3] deals with T3, TdT (human terminal deoxynucleotidyl transferase, hTdT) (Homo sapiens, UniProt P04053, F400A).
T3 construct: gene DNTT; expression per earlier publication
Nature of the data set: microscale thermophoresis (Monolith NT.[…]). The format is binding. The conditions noted are these: 50 mM Tris-HCl pH 8.0, 5 mM MnCl2, 37 °C; no primer listed; Hill coefficient fixed at 2; labelled compound (fluorescein); read-out: Kd, μM / Flu-dUTP.

Data set [4] concerns the target T4, TdT (human terminal deoxynucleotidyl transferase, hTdT) (Homo sapiens, UniProt P04053).
T4 construct: gene DNTT; expression per earlier publication
As to the kind of experiment: microscale thermophoresis (Monolith NT.[…]). The format is binding. The settings on record: 50 mM Tris-HCl pH 8.0, 5 mM MnCl2, 37 °C; no primer listed; Hill coefficient fixed at 2; labelled compound (fluorescein); read-out: Kd, μM / Flu-dUTP.

Data set [5] addresses T5, TdT (human terminal deoxynucleotidyl transferase, hTdT) (Homo sapiens, UniProt P04053, F404W).
T5 construct: gene DNTT; expression per earlier publication
Nature of the data set: microscale thermophoresis (Monolith NT.[…]). It counts as binding. The conditions noted are these: 50 mM Tris-HCl pH 8.0, 5 mM MnCl2, 37 °C; no primer listed; Hill coefficient fixed at 2; labelled compound (fluorescein); read-out: Kd, μM / Flu-dUTP.

The next data set addresses TdT L397A (human, UniProt P04053 1-509, L397A). Nature of the data set: EMSA; 5 mM MgCl2; Hill h fixed at 2; EMSA: 50 mM Tris-HCl pH 8.0, 5 mM MgCl2, 7% glycerol; 0.5 uM FAM-M44, 0.06-10 uM protein; 10 min at 37 C then 5 min at 0 C; gel at 4 C. The conditions noted are these: protein: recombinant; chain copies: 2; label: 5'-FAM; single strand. (In general: In EMSA bound probe runs differently from free probe, usually more slowly.)

For another data set, the target named is TdT WT (human, UniProt P04053 1-509). The description is as above. The conditions noted are these: protein: recombinant; chain copies: 2; label: 5'-FAM; single strand.
The next data set concerns the target TdT F400A (human, UniProt P04053 1-509, F400A). Described as above. The settings on record: protein: recombinant; chain copies: 2; label: 5'-FAM; single strand.
The target in the next data set is TdT F404W (human, UniProt P04053 1-509, F404W). The description is as above. The conditions noted are these: protein: recombinant; chain copies: 2; label: 5'-FAM; single strand.
In a further data set the target is TdT F404A (human, UniProt P04053 1-509, F404A). The description is as above. The conditions noted are these: protein: recombinant; chain copies: 2; label: 5'-FAM; single strand.
TdT F404A, sequence (P04053 whole entry F404A): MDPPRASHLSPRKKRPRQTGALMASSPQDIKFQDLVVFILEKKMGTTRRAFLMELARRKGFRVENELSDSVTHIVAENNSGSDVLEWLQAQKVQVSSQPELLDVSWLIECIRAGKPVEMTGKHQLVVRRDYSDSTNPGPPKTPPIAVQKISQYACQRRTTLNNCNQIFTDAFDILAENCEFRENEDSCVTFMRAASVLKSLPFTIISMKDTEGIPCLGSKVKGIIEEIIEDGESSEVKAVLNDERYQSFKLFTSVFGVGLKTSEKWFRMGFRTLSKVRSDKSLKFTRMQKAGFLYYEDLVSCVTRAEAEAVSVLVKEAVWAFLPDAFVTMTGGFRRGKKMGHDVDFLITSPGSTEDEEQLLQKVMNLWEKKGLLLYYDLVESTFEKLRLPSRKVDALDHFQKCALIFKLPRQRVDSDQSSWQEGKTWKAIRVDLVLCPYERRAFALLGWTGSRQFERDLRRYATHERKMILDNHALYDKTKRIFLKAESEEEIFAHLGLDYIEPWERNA

TdT F400A, sequence (P04053 whole entry F400A): as the sequence (P04053 whole entry F404A) above, with F400A, A404F counted along it
T3 sequence (P04053 whole entry F400A): as the sequence (P04053 whole entry F404A) above, with F400A, A404F counted along it
TdT L397A, sequence (P04053 whole entry L397A): as the sequence (P04053 whole entry F404A) above, with L397A, A404F counted along it
T1 sequence (P04053 whole entry L397A): as the sequence (P04053 whole entry F404A) above, with L397A, A404F counted along it
T5 sequence (P04053 whole entry F404W): as the sequence (P04053 whole entry F404A) above, with A404W counted along it
TdT F404W, sequence (P04053 whole entry F404W): as the sequence (P04053 whole entry F404A) above, with A404W counted along it
T2 sequence (P04053 whole entry F404A): as the sequence (P04053 whole entry F404A) above
TdT WT, sequence (P04053 whole entry): as the sequence (P04053 whole entry F404A) above, with A404F counted along it
T4 sequence (P04053 whole entry): as the sequence (P04053 whole entry F404A) above, with A404F counted along it

Consider Flu-dUTP, for which the Kd in [1] was determined as 1.5 ± 0.2 µM; in data set [2], 1.5 ± 0.2 µM; in data set [3], 1.1 ± 0.1 µM; in data set [4], 0.9 ± 0.1 µM; in [5], 1 ± 0.1 µM.

B1: FAM-M44 (ssDNA)
DNA: ATGCTATGGATTGATGTGACTAAGGTTGGAATGATGTGAAGAGA
B1: the Kd in the data set with TdT L397A is 0.97 ± 0.08 µM; with TdT WT, 0.88 ± 0.08 µM; with TdT F400A, 0.98 ± 0.07 µM; in the data set with TdT F404W, 1 ± 0.1 µM; with TdT F404A, 1.1 ± 0.09 µM.
